Test results taken from article PMC4502414, “Transforming berberine into its intestine-absorbable form by the gut microbiota” (Scientific Reports, 2015).
Entries after “also recorded” stand apart in the source; their conditions may differ.

Key:
[1] = 72-h cumulative fecal excretion of BBR and dhBBR in pseudo germ-free (PGF) and conventional rats; type: in vivo, SD rats; settings: oral BBR 200 mg/kg
Description: Male SD rats (180–200 g) were orally treated with cefadroxil (100 mg/kg), terramycin (300 mg/kg) and erythromycin (300 mg/kg) twice a day for 3 days, and pharmacokinetic examination was performed 2 days after final administration. The colon contents of the rats were collected on the first and third days after the final treatment with antibiotics, and the germ-free status was confirmed by culturing fecal samples aerobically on a nutrient agar culture medium. Fecal samples from non-antibiotic-exposed rats served as control samples. Before oral administration of a single dose of BBR (200 mg/kg), the PGF rats were fasted overnight with free access to water. […] The samples were stored at −20 °C for further analysis.

[2] = system: rat large intestinal bacteria (RLIB); test: Conversion of BBR into dhBBR by rat large intestinal bacteria in vitro; type: in vitro ADME; settings: BBR incubated with rat large intestinal bacteria
Description: The method was reported previously. Briefly, colon contents from six rats were pooled, and 5 g of the sample was transferred into a flask containing the anaerobic medium (100 ml). After thorough mixing, the cultures (which contained intestinal bacteria and anaerobic medium) were pre-incubated under anaerobic conditions with a N2 atmosphere at 37 °C for 60 min. Rutin (10 μl, 1.0 mg/ml in methanol) was used as a positive reference for intestinal metabolism.
Ten microliters of BBR at different concentrations was added into the fresh human or rat intestinal bacteria cultures (990 μl), with methanol (10 μl) as the negative control. The final concentrations of BBR in the incubation system were 100, 10, and 5 μg/ml. The cultures were incubated at 37 °C for 72 h in the presence or absence of human or rat intestinal bacteria.
After termination of the reaction with acetonitrile (1 ml), 50 μl of the internal standard (tetrahydropalmatine, 2.0 mg/ml in methanol) was added into the BBR samples, which were then mixed for 30 sec and centrifuged at 7,500 g for 15 min. The supernatant was dried under nitrogen flow at room temperature, and the residue was dissolved in 100 μl of methanol and centrifuged at 7,500 g for 15 min. The metabolites were analyzed by LC/MS^n-IT-TOF using a previously reported method. […]

[3] = system: rat small intestinal bacteria (RSIB); test: Conversion of BBR into dhBBR by rat small intestinal bacteria in vitro; type: in vitro ADME; settings: BBR incubated with rat small intestine bacteria
Description: The small intestine contents from ten sacrificed SD rats were obtained and mixed with anaerobic medium to prepare the cultures. BBR was added into the incubation at final concentrations of 100, 50, and 10 μg/ml, and the reaction was continued for 6, 12 or 24 h. Levels of BBR, dhBBR and other BBR metabolites were determinedusing the LC-MS/MS 8040 and GC-MS instruments according to the above-mentioned method.

LDLR = test: Drug effect on hepatic LDLR gene expression in HepG2 cells; type: cell-based, human; settings: 12 h
Description: The HepG2 human hepatoma cell line was obtained from the American Tissue Culture Collection (ATCC, USA) and grown in Eagle’s Minimum Essential Medium (GIBCO) supplemented with 10% fetal bovine serum (GIBCO) at 37 °C. For the drug efficacy test, HepG2 cells were cultured for 24 h and then treated with BBR or dhBBR for 12 h. The compounds were freshly prepared in medium prior to use.
The total cellular RNAs were isolated with the SV Total RNA Isolation System (Promega, Madison, WI, USA) following the vendor’s instructions. The total RNAs were reversely transcribed into cDNAs, and quantitative real-time PCR was performed using a 2-Step RT-qPCR System (Promega, Madison, WI, USA), with GAPDH as an internal control. The normalized LDLR mRNA expression levels were plotted as fold levels compared with the untreated control. The following primers were used: LDLR forward, […]; LDLR reverse, […]; GAPDH forward, […]; and GAPDH reverse, […].

[4] = Excretion of BBR, dhBBR and other BBR metabolites in rat feces, urine and bile after oral BBR; type: in vivo, SD rats
Description: For the analysis of the in vivo intestinal metabolites of BBR, six SD rats were orally treated with BBR (200 mg/kg), and their feces were collected 0, 6, 12, 24, 36, 48, and 72 h after treatment. The method used for the preparation of the feces was reported previously. An aliquot of 1 μl was injected into the GC-MS instrument. The level of dhBBR in feces was measured and calculated based on the standard curve obtained with the in vitro intestinal bacteria incubation mixture.

[5] = Effect of heat inactivation and vitamin C on dhBBR-to-BBR transformation in rat small intestine homogenate; type: in vitro ADME; settings: homogenate boiled for 2 min
Description: The rats (n = 3) were sacrificed to obtain fresh small intestine homogenate. The homogenate was then boiled for 2 min to inactivate all of the enzymes. After pre-incubation at 37 °C for 2 min, 5 μl of dhBBR (10 mM, dissolved in DMSO) was added into the inactivated homogenate, and fresh homogenate (active one) was used as a reference. The sample was mixed thoroughly and centrifuged at 16,000 g for 5 min. The supernatant was transferred into new tubes, treated with 500 μl of acetonitrile, and then centrifuged. Twenty-microliter aliquots were used for the HPLC analysis.
To examine the oxidative reaction, 100 μl of vitamin C was pre-incubated with the inactivated homogenate; the final concentrations of vitamin C were 95, 9.5 and 0.95 mM. The superoxide anion in the sample was detected with an O2^− ELISA kit (Beijing Biolab Co., Ltd., Beijing, China; lot: 201404) following the manufacturer’s instructions.

With `COc1ccc2c(c1OC)CN1CCc3cc4c(cc3C1=C2)OCO4` [dhBBR, dihydroberberine] the “72-h-cumulative dhBBR in feces, % of the giving amount of BBR” value ([1]; PGF rats) was 6.09%, the “72-h-cumulative dhBBR in feces, % of the giving amount of BBR” value ([1]; untreated (conventional) rats) was 18.21% and the “incubation time until dhBBR became detectable” value [2] was no more than 24 h. The “incubation time until dhBBR became detectable” value [3] was no more than 6 h, the “up-regulation of LDLR mRNA expression compared with BBR” value (LDLR) was “Reduced effect; also recorded: much lower than that of BBR” and the “time of peak amount of dhBBR in feces” value ([4]; after oral BBR) was 12 to 24 h. For the same compound, the “detection of dhBBR in rat excretions” value ([4]; oral BBR, 72-h period, urine, bile and feces) was “detected only in feces” and the “effect of heat inactivation of homogenate on dhBBR-to-BBR reversion” value [5] was “did not reduce the dhBBR-to-BBR reversion”.
